Data set [1] is described as follows: Transfer into each organ: carotenoid concentration in organs of cynomolgus monkeys (Test Example 3). Type of data set: in vivo. The following applies: cynomolgus monkey. As for the experimental part: As experimental animals, cynomolgus monkeys were used. Two cynomolgus monkeys were used, and an adonixanthin dosing solution was administered to one monkey (adonixanthin-administering monkey), while an astaxanthin dosing solution was administered to the other monkey (astaxanthin-administering monkey). As the dosing solutions, the dosing solutions obtained in Preparation Example 2 were used, and the dosing solutions at a dose such that the dose of adonixanthin or astaxanthin was 50 mg/kg body weight were administered once daily for 10 days (the day of initiation of administration of the dosing solutions was defined as day 1). As the administration method, a disposable catheter was inserted from the nasal cavity into the stomach, and the dosing solutions were injected into the stomach using a syringe. When the dosing solutions were collected into a syringe, the dosing solutions were collected while being stirred with a stirrer. The dose in each administration was calculated based on the latest body weight at each administration time point (the body weight was measured on the day of initiation of acclimation, the day of end of acclimation, the day of initiation of administration, and before administration on day 8 of administration using an electric balance (HP-40K or GP-40K, both of which are manufactured by A&D Company, Limited)). The administration time was 8:30 to 13:30.
During the administration period of the dosing solution, each cynomolgus monkey was fed about 108 g (about 12 g×9 pieces) of a pellet once daily at 14:00 to 16:00, and the feed remained by the feeding on the next day (for the day of administration, before administration) was recovered. Each cynomolgus monkey was fed tap water at libitum, and maintained on a 12-h light/dark cycle, at […], with a relative humidity of 50±20%.
After blood collection after the last administration of the dosing solutions, an aqueous solution of pentobarbital sodium (manufactured by Tokyo Chemical Industry Co., Ltd.) (64.8 mg/mL) was administered into the cephalic vein at a volume of 0.4 mL/kg body weight to perform anesthesia. After the body weight was measured, each cynomolgus monkey was euthanized by exsanguination, and the brain (cerebral cortex, cerebral medulla, cerebellum, midbrain, striatum putamen, striatum caudate nucleus, hippocampus, medulla oblongata, diencephalon), the heart, the spleen, the liver, the kidneys (right and left), and the retina were collected. Each organ thus collected was stored in a deep freezer (−70° C. or lower).
Each of the concentration of adonixanthin in each organ collected from the adonixanthin-administering monkey (concentration relative to the weight of each organ) and the concentration of astaxanthin in each organ collected from the astaxanthin-administering monkey (concentration relative to the weight of each organ) was measured. Specifically, each organ was homogenized, and extraction was repeated with acetone until no color occurred. Then, filtration through a filter was performed to evaporate acetone, and diethyl ether:hexane (2:8, v/v) was added to the solution to extract a carotenoid. Furthermore, evaporation to dryness was performed, and the residue was dissolved in acetone:hexane (2:8, v/v) and subjected to HPLC. As the HPLC device, a Hitachi L-6000 intelligent pump and an L-4250 UV-VIS detector were used. The measurement wavelength was 450 nm, and a column of 5 μm Cosmosil 5SL-II (inner diameter of 250×4.6 mm) (manufactured by Nacalai Tesque, Inc.) was used. As the mobile phase, acetone:hexane (2:8, v/v) was used, and measurement was performed at a flow rate of 1.0 mL/min.
Each of the concentration of adonixanthin in each organ collected from the adonixanthin-administering monkey and the concentration of astaxanthin in each organ collected from the astaxanthin-administering monkey is shown in Table 2.

Data set [2] relates to 8-OHdG. The data set is described as follows: Measurement of 8-OHdG in blood in mice (Test Example 4). Type of data set: in vivo, ICR strain mice. The following applies: 300 mg/kg body weight orally once daily for 14 days, ELISA, vs control administration group (olive oil). An excerpt:
Adonixanthin was used as an asymmetric carotenoid, and astaxanthin was used as a symmetric carotenoid. As experimental animals, ICR strain mice were used. Thirty (30) mice were used, and 10 mice each were assigned to the adonixanthin-administration group, the astaxanthin-administration group, and the control administration group. […]
After end of administration for 14 days, blood was collected from the postcava of the mice under isoflurane absorption anesthesia. […] Thereafter, 8-OHdG of the collected serum was measured using 8-hydroxy 2 deoxyguanosine ELISA Kit (ab201734) (manufactured by Abcam plc.) as an ELISA kit for measurement of 8-OHdG.
Each of the concentration of 8-OHdG in serum collected from the adonixanthin-administration group, and the concentration of 8-OHdG in serum collected from the astaxanthin-administration group, and the concentration of 8-OHdG in serum collected from the control administration group is shown in FIG. 4. The concentration was expressed as mean±standard error. […]
(An ELISA detects its analyte on a solid surface through an enzyme-linked reagent.)

Read-outs that look alike come from different tables or passages of the source.

With `CC1=C(/C=C/C(C)=C/C=C/C(C)=C/C=C/C=C(C)/C=C/C=C(C)/C=C/C2=C(C)C(=O)C(O)CC2(C)C)C(C)(C)CC(O)C1` (stereo not drawn) [adonixanthin, 3,3′-dihydroxy-β,β-caroten-4-one], the “Transfer into and retention in each organ (summary of Table 2)” value in data set [1] (50 mg/kg intragastric once daily for 10 days) was “especially likely to be transferred into each organ and retained therein”. Further, the concentration at 10 days in data set [1] (brain, cerebellum, oral, 50 mg/kg, 50 mg/kg intragastric once daily for 10 days, after last administration, read-out: Concentration in organ: Brain, Cerebellum) came to 57.5 ng/g; in data set [1] (brain, cerebral cortex, oral, 50 mg/kg, 50 mg/kg intragastric once daily for 10 days, after last administration, read-out: Concentration in organ: Brain, Cerebral cortex), 48.9 ng/g; in data set [1] (brain, cerebral medulla, oral, 50 mg/kg, 50 mg/kg intragastric once daily for 10 days, after last administration, read-out: Concentration in organ: Brain, Cerebral medulla), 53.2 ng/g; in data set [1] (brain, diencephalon, oral, 50 mg/kg, 50 mg/kg intragastric once daily for 10 days, after last administration, read-out: Concentration in organ: Brain, Diencephalon), 77.1 ng/g; in data set [1] (brain, hippocampus, oral, 50 mg/kg, 50 mg/kg intragastric once daily for 10 days, after last administration, read-out: Concentration in organ: Brain, Hippocampus), 64 ng/g; in data set [1] (brain, medulla oblongata, oral, 50 mg/kg, 50 mg/kg intragastric once daily for 10 days, after last administration, read-out: Concentration in organ: Brain, Medulla oblongata) it was 27.6 ng/g. Moreover, the concentration at 10 days was found to be 7.4 ng/g in data set [1] (brain, midbrain, oral, 50 mg/kg, 50 mg/kg intragastric once daily for 10 days, after last administration, read-out: Concentration in organ: Brain, Midbrain); 59.8 ng/g in data set [1] (brain, striatum caudate nucleus, oral, 50 mg/kg, 50 mg/kg intragastric once daily for 10 days, after last administration, read-out: Concentration in organ: Brain, Striatum Caudate nucleus); 42.1 ng/g in data set [1] (brain, striatum putamen, oral, 50 mg/kg, 50 mg/kg intragastric once daily for 10 days, after last administration, read-out: Concentration in organ: Brain, Striatum Putamen); 305 ng/g in data set [1] (heart, oral, 50 mg/kg, 50 mg/kg intragastric once daily for 10 days, after last administration, read-out: Concentration in organ: Heart); 1600 ng/g in data set [1] (kidney (left), oral, 50 mg/kg, 50 mg/kg intragastric once daily for 10 days, after last administration, read-out: Concentration in organ: Kidney (left)); 1530 ng/g in data set [1] (kidney (right), oral, 50 mg/kg, 50 mg/kg intragastric once daily for 10 days, after last administration, read-out: Concentration in organ: Kidney (right)). In addition, the concentration at 10 days in data set [1] (liver, oral, 50 mg/kg, 50 mg/kg intragastric once daily for 10 days, after last administration, read-out: Concentration in organ: Liver) is 1120 ng/g; in data set [1] (retina, oral, 50 mg/kg, 50 mg/kg intragastric once daily for 10 days, after last administration, read-out: Concentration in organ: Retina), 689 ng/g; in data set [1] (spleen, oral, 50 mg/kg, 50 mg/kg intragastric once daily for 10 days, after last administration, read-out: Concentration in organ: Spleen) it was 5280 ng/g. For the same compound, the “Concentration of 8-OHdG in serum, FIG. 4” value in data set [2] is “significantly lower than that in the control administration group”.

In the case of `CC1=C(/C=C/C(C)=C/C=C/C(C)=C/C=C/C=C(C)/C=C/C=C(C)/C=C/C2=C(C)C(=O)C(O)CC2(C)C)C(C)(C)CC(O)C1=O` (stereo not drawn) [astaxanthin, 3,3′-dihydroxy-β,β-carotene-4,4′-dione], the “Transfer into and retention in each organ (summary of Table 2)” value in data set [1] (in vivo, 50 mg/kg) was “exist in each organ at a high concentration”. Further, the concentration at 10 days in data set [1] (in vivo, 50 mg/kg, Concentration in organ: Brain, Cerebellum) is 14.4 ng/g; in data set [1] (in vivo, 50 mg/kg, Concentration in organ: Brain, Cerebral cortex), 4.8 ng/g; in data set [1] (in vivo, 50 mg/kg, Concentration in organ: Brain, Cerebral medulla), 8.3 ng/g; in data set [1] (in vivo, 50 mg/kg, Concentration in organ: Brain, Diencephalon), 5.2 ng/g; in data set [1] (in vivo, 50 mg/kg, Concentration in organ: Brain, Hippocampus), 7.1 ng/g; in data set [1] (in vivo, 50 mg/kg, Concentration in organ: Brain, Medulla oblongata), 8.3 ng/g. For the same compound, the concentration at 10 days was determined as 2.9 ng/g in data set [1] (in vivo, 50 mg/kg, Concentration in organ: Brain, Midbrain); 10.2 ng/g in data set [1] (in vivo, 50 mg/kg, Concentration in organ: Brain, Striatum Caudate nucleus); 5 ng/g in data set [1] (in vivo, 50 mg/kg, Concentration in organ: Brain, Striatum Putamen); 15.7 ng/g in data set [1] (in vivo, 50 mg/kg, Concentration in organ: Heart); 228 ng/g in data set [1] (in vivo, 50 mg/kg, Concentration in organ: Kidney (left)); 231 ng/g in data set [1] (in vivo, 50 mg/kg, Concentration in organ: Kidney (right)). The concentration at 10 days stood at 37.8 ng/g in data set [1] (in vivo, 50 mg/kg, Concentration in organ: Liver); 24.4 ng/g in data set [1] (in vivo, 50 mg/kg, Concentration in organ: Retina); 88.8 ng/g in data set [1] (in vivo, 50 mg/kg, Concentration in organ: Spleen). The “Concentration of 8-OHdG in serum, FIG. 4” value in data set [2] is on record as “low”.

The values are drawn from patent publication US20220054432A1, “COMPOSITION FOR INCREASING RETENTION OF CAROTENOID IN BLOOD” (ENEOS Corporation, priority 2018, published 2022).
